Experimental data: patent US12441710B2, “Substituted piperidino compounds and related methods of treatment” (Alkermes, Inc., priority 2020, dated 2025)

How the values were obtained:
Assay type in all cases: in vitro ADME
[1] = Hepatocytes stability assay (human hepatocytes); settings: both sexes, cryopreserved hepatocytes, 1 μM test compound, 1×10^6 cell/mL, read-out: CLint (μL/min/million cells)
Description: (§1) In vitro metabolic stability was assessed using cryopreserved hepatocytes from male Sprague Dawley rats and a pool of 50 mixed gender humans (BioIVT, Baltimore, MD). The incubation mixtures were prepared by mixing 250 μL of pre-warmed KHB (Krebs-Henseleit buffer) containing 2×10^6 cell/mL of hepatocytes with 250 μL of pre-warmed KHB buffer containing 2 μM of test compounds in a 48-well plate, giving a final concentration of 1 μM test compound (0.1% DMSO) and 1×10^6 cell/mL of hepatocytes. The reaction mixture was incubated at 37 degrees C. A 50 μL aliquot of incubation mixture was taken at time points (0, 15, 30, 60, 120 and 240 minutes) and transferred into a 96-well plate containing 300 μL ice-cold acetonitrile (containing 30 ng/mL of labetalol and 10 ng/mL of Naltrexone-d3 as internal standards) and immediately placed in ice to terminate the reaction. Samples were centrifuged, and supernatants were transferred into 96-well plates for liquid chromatography with tandem mass spectrometry (LC-MS/MS) analysis to monitor the depletion of the test compound. Data was calculated as percent remaining by assuming zero-minute time point peak area ratio (analyte/IS) as 100% and dividing remaining time point peak area ratios by zero-minute time point peak area ratio. Data were fitted to a first-order decay model to determine half-life. From a plot of log (ln) peak area against time, the slope of the line was determined. Subsequently, half-life (T1/2) and intrinsic clearance (CLint) were calculated using the equations below: • Elimination rate constant (k)=(−slope) • Half-life (T1/2) min=0.693/k • Intrinsic Clearance (CLint) (mL/min/million cells)=(V×0.693)/T1/2 • V=incubation volume mL/number of cells The in vitro T1/2 was converted to in vitro intrinsic clearance (CLint,hep) in units of mL/min/kg using the formula shown below: The in vitro intrinsic clearance (CLint,hep) was scaled to in vivo hepatic clearance (CL,hep) using the following equation which was adapted from a well-stirred model. [formula] where Q is the liver blood flow and fu is the fraction unbound (assumed to be unity in this case). All parameters used in the calculation are shown below (Table 4). The extraction ratio (ER) was calculated by dividing the hepatic clearance of a compound to the liver blood flow. The data reported in Table 5 were obtained according to the human hepatocytes stability assay described above.

[2] = system: human hepatocytes; experiment: Hepatocytes stability assay (human hepatocytes); settings: hepatic clearance divided by liver blood flow, fu assumed unity
Description: as §1

[3] = system: MDR1; experiment: MDCK-MDR1 permeability assay; settings: dog, 3 μM test compound; for efflux ratio at 2 h, 3 μM: Papp (B→A) divided by Papp (A→B), read-out: Efflux ratio (ER); for Papp A→B at 2 h, 3 μM: apical to basolateral, 2 hours at 37 degrees C
Description: The bidirectional permeability (Apical to Basal and Basal to Apical directions) of test compounds in MDCK-MDR1 cells were evaluated using MDCK-MDR1 cells seeded in Solvo PreadyPort™ MDCK 96-well plate. Once the plate was received from ReadyCell (Barcelona, Spain), it was treated as per PreadyPort™ user's manual.
For the Apical to Basolateral (A→B) permeability, 80 μL of test compound (3 μM) co-dosed with LY (Lucifer Yellow) (100 μM) in HBSS (Hank's Balanced Salt Solution) assay buffer was added to the donor side (A) while 250 μL of HBSS buffer was added to the receiver side (B). For the Basolateral to Apical (B→A) permeability, 255 μL of test compound (3 μM) in HBSS assay buffer was added to the donor side (B) while 75 μL of HBSS buffer containing LY (100 μM) was added to the receiver side (A).
The plate was placed in an incubator set at 37 degrees C. After 10 minutes of pre-warming, 5 μL aliquot was taken from donor compartment and set aside as the dosing solution. The MDCK-MDR1 incubation plate was placed back into the incubator for 2 hours of incubation at 37 degrees C. After 2 hours of incubation, 25 μL and 5 μL aliquots were removed from the receiver and donor sides, respectively. To the 5 μL aliquots taken from the donor sides (before and after a 2-hour incubation) were diluted with 20 μL of the HBSS buffer. All samples were mixed with 150 μL with acetonitrile containing internal standard (IS) and 200 μL water, and analyzed by LC-MS/MS.
The apparent permeability (Papp) was calculated using the following formula: Papp=dQ/dt×1/A×C0 where: • dQ/dt: amount of translocated material over incubation time (nmol/s) • A: area of insert (0.14 cm^2 for PreadyPort™ MDR1-96) • C0: initial concentration of product applied in apical (A→B) or basal (B→A) compartment (nmol/mL).
The efflux ratio (ER) was measured by dividing the Papp (basolateral to apical direction) by Papp (apical to basolateral direction). It is a general measure of the involvement of active processes. An ER >2 is considered positive for active transport.
The data reported in Table 3 were obtained according to the MDCK-MDR1 permeability assay described above.

Structure (SMILES)	hepatocyte CLint at 1 μM [1] [µL/min/1e6 cells]	Extraction Ratio (ER) [2]	efflux ratio at 2 h, 3 μM [3]	Papp A→B at 2 h, 3 μM [3] [×10⁻⁶ cm/s]
CS(=O)(=O)N[C@H]1CCN(c2cccc(F)n2)CC1COC1CCC(c2ccccc2)CC1 (some centres unmarked) [Compound 23]	25	0.79	> 5.4	< 2
CS(=O)(=O)N[C@H]1CCN(c2cnccn2)CC1COC1CCC(c2ccccc2)CC1 (some centres unmarked) [Compound 21]	101	0.94	35	0.69
CS(=O)(=O)N[C@H]1CCN(c2nccc3ocnc23)CC1COC1CCC(c2ccccc2)CC1 (some centres unmarked) [Compound 45]	103	0.94	2.2	1.9
CS(=O)(=O)N[C@H]1CCN(c2ccccn2)CC1COC1CCC(c2ccccc2F)CC1 (some centres unmarked) [Compound 5]	49	0.88	> 7.2	< 0.9
CS(=O)(=O)N[C@H]1CCN(c2ccccn2)CC1COC1CCC(c2cccc(O)c2)CC1 (some centres unmarked) [Compound 31]	81	0.92	18	1
CS(=O)(=O)N[C@H]1CCN(c2ccccn2)CC1COC1CCC(c2cnccn2)CC1 (some centres unmarked) [Compound 9]	45	0.87	25	0.97
CS(=O)(=O)N[C@H]1CCN(c2ccccn2)CC1COC1CCC(c2ccc(O)cc2)CC1 (some centres unmarked) [Compound 32]	110	0.94	34	0.41
CS(=O)(=O)N[C@H]1CCN(c2cccc3ccnn23)CC1COC1CCC(c2ccccc2)CC1 (some centres unmarked) [Compound 42]	100	0.94	2.9	0.86
C[C@@]1(COC2CCC(c3ccccc3)CC2)CN(c2ccccn2)CC[C@@H]1NS(C)(=O)=O (some centres unmarked) [Compound 29]	30	0.82	> 17	< 0.42
CS(=O)(=O)N[C@H]1CCN(c2ccccn2)CC1COC1CCC(c2ccncc2)CC1 (some centres unmarked) [Compound 4]	57	0.89	14	1.2
CS(=O)(=O)N[C@H]1CCN(c2ccccn2)CC1COC1CCC(c2ccncn2)CC1 (some centres unmarked) [Compound 8]	30	0.82	15	1.8
Cc1cccc(C2CCC(OCC3CN(c4ccccn4)CC[C@@H]3NS(C)(=O)=O)CC2)c1C (some centres unmarked) [Compound 17]	32	0.83	> 6.9	< 0.28
CS(=O)(=O)N[C@H]1CCN(Cc2ccccn2)CC1COC1CCC(c2ccccc2)CC1 (some centres unmarked) [Compound 39]	59	0.90	15	1.4

The remaining lines, values ahead:

hepatocyte CLint at 1 μM [1] [µL/min/1e6 cells]	Extraction Ratio (ER) [2]	efflux ratio at 2 h, 3 μM [3]	Papp A→B at 2 h, 3 μM [3] [×10⁻⁶ cm/s]	Structure (SMILES)
43	0.87	> 7.9	< 0.9	Cc1cccc(C2CCC(OCC3CN(c4ccccn4)CC[C@@H]3NS(C)(=O)=O)CC2)c1 (some centres unmarked) [Compound 16]
50	0.88	24	1.7	CS(=O)(=O)N[C@H]1CCN(c2ccccn2)CC1COC1CCC(c2cccnc2)CC1 (some centres unmarked) [Compound 3]
64	0.91	> 6.9	< 0.33	Cc1ccccc1C1CCC(OCC2CN(c3ccccn3)CC[C@@H]2NS(C)(=O)=O)CC1 (some centres unmarked) [Compound 15]
58	0.90	> 12	< 0.21	CS(=O)(=O)N[C@H]1CCN(Cc2ccccc2)CC1COC1CCC(c2ccccc2)CC1 (some centres unmarked) [Compound 36]
73	0.92	1.4	5.6	CS(=O)(=O)N[C@H]1CCN(c2ccccn2)CC1COC1CCC(c2ccccc2)CC1 (some centres unmarked) [Compound 10]
133	0.95	6.4	3	CS(=O)(=O)N[C@H]1CCN(c2nccc3ncnn23)CC1COC1CCC(c2ccccc2)CC1 (some centres unmarked) [Compound 44]
79	0.92	15	0.07	CS(=O)(=O)N[C@H]1CCN(c2ccccn2)CC1COC1CCC(c2cccc(C(F)(F)F)c2)CC1 (some centres unmarked) [Compound 33]
22	0.77	> 56	< 0.12	CS(=O)(=O)N[C@H]1CCN(c2ccccn2)CC1COC1CCC(c2cccnn2)CC1 (some centres unmarked) [Compound 14]
102	0.94	8.8	2.4	CS(=O)(=O)N[C@H]1CCN(c2cccc3ncnn23)CC1COC1CCC(c2ccccc2)CC1 (some centres unmarked) [Compound 43]
73	0.92	> 58	< 0.41	CS(=O)(=O)N[C@H]1CCN(c2cc(F)ccn2)CC1COC1CCC(c2ccccc2)CC1 (some centres unmarked) [Compound 25]
60	0.90	17	1.1	CS(=O)(=O)N[C@H]1CCN(c2ccncn2)CC1COC1CCC(c2ccccc2)CC1 (some centres unmarked) [Compound 20]
36	0.84	> 2.6	< 1.8	Cc1cc(C)cc(C2CCC(OCC3CN(c4ccccn4)CC[C@@H]3NS(C)(=O)=O)CC2)c1 (some centres unmarked) [Compound 18]
56	0.89	23	1.3	CS(=O)(=O)N[C@H]1CCN(c2cccnn2)CC1COC1CCC(c2ccccc2)CC1 (some centres unmarked) [Compound 22]
75	0.92	3	2.7	CS(=O)(=O)N[C@H]1CCN(c2ncccc2O)CC1COC1CCC(c2ccccc2)CC1 (some centres unmarked) [Compound 27]
154	0.96	> 3.4	< 1.2	CS(=O)(=O)N[C@H]1CCN(c2ncccc2C(F)(F)F)CC1COC1CCC(c2ccccc2)CC1 (some centres unmarked) [Compound 28]
102	0.94	12	1.3	CS(=O)(=O)N[C@H]1CCN(c2ccccn2)CC1COC1CCC(c2cccc(C#N)c2)CC1 (some centres unmarked) [Compound 35]
